{"source": "the supplement of paper PMC10307832", "experiment_in_all_cases": "relative viability (nuclei count vs DMSO), 5 days (fraction); higher = more cells survive", "key": {"[1]": {"compound": "Cc1ccc(Nc2nccc(N(C)c3ccc4c(C)n(C)nc4c3)n2)cc1S(N)(=O)=O [Pazopanib]", "procedure,_shortened": "(§1)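 Viability was defined as treated-well nuclei divided by vehicle-well nuclei, with the median taken over replicate plates. Cells from lung cancer lines sat overnight at 37 °C in 1536-well plates, received five √10-spaced library-drug doses by pinning on vehicle-anchored plates, and grew 5 days without medium change before one-step fixation, permeabilisation and Hoechst staining, 4× imaging and MetaXpress nuclear counts. Only plates with control CV under 25% and at least one doubling were kept.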"}, "[2]": {"compound": "Cc1ccc(C(=O)Nc2ccc(CN3CCN(C)CC3)c(C(F)(F)F)c2)cc1C#Cc1cnc2cccnn12 [Ponatinib]", "procedure,_shortened": "as §1"}, "[3]": {"compound": "Cc1ccc(C(=O)Nc2ccc(CN3CCN(C)CC3)c(C(F)(F)F)c2)cc1C#Cc1cnc2cccnn12 [Ponatinib] + Nc1ncn([C@H]2C[C@H](O)[C@@H](CO)O2)c(=O)n1 [Decitabine] (partner 2 µM)", "procedure,_shortened": "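Nuclei were stained with Hoechst during a one-step fixation (final 0.05% Triton X-100, 1% formaldehyde, 1 ug/ml Hoechst) carried out 5 days after dosing, then counted on 4× images. The cells, lung cancer lines in 1536-well plates, had been dosed by pin tool the day after seeding with one drug alone or a fixed anchor-drug dose plus five library-drug doses (not always all listed) in √10 steps. Relative viability is the nuclei count in treated wells divided by that in vehicle wells, and each value is the median of duplicate plates.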"}}, "data": [{"cell line": "UMC-11", "values": [{"measurement": "relative viability", "setting": "[1]; 0.01 µM", "value": 0.828}, {"measurement": "relative viability", "setting": "[1]; 0.03162 µM", "value": 1.01}, {"measurement": "relative viability", "setting": "[1]; 0.1 µM", "value": 1.01}, {"measurement": "relative viability", "setting": "[1]; 0.3162 µM", "value": 1.03}, {"measurement": "relative viability", "setting": "[1]; 1 µM", "value": 1.11}, {"measurement": "relative viability", "setting": "[2]; 0.002 µM", "value": 0.914}, {"measurement": "relative viability", "setting": "[2]; 0.006325 µM", "value": 0.945}, {"measurement": "relative viability", "setting": "[2]; 0.06325 µM", "value": 1.07}, {"measurement": "relative viability", "setting": "[2]; 0.2 µM", "value": 0.99}, {"measurement": "relative viability", "setting": "[3]; first compound 0.006325 µM", "value": 0.595}, {"measurement": "relative viability", "setting": "[3]; first compound 0.06325 µM", "value": 0.709}, {"measurement": "relative viability", "setting": "[3]; first compound 0.2 µM", "value": 0.575}]}]}
